From PubChem BioAssay (NCI)
Several values for one entry are separate records, joined by “and”; a condition that tells them apart may be missing. Identical values can stand only once.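 The compound was tested at five concentrations on cells cultured in 96-well plates, with a 48-hour exposure period. GI50 = concentration required for 50% inhibition of growth. TGI denotes the concentration required for complete inhibition of growth.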

What was measured:
Assay in all cases: NCI anticancer screen, dose series, 48 h
RXF 393 renal = test system: RXF 393 renal
COLO 205 colon = test system: COLO 205 colon
UACC-257 melanoma = test system: UACC-257 melanoma
LOX IMVI melanoma = test system: LOX IMVI melanoma
SK-MEL-2 melanoma = test system: SK-MEL-2 melanoma
MDA-MB-231 breast = test system: MDA-MB-231 breast
OVCAR-3 ovarian = test system: OVCAR-3 ovarian
K-562 leukemia = test system: K-562 leukemia
A549 NSCLC = test system: A549 NSCLC
SF-539 CNS = test system: SF-539 CNS

Compound | TGI (RXF 393 renal) | TGI (COLO 205 colon) [µM] | TGI (UACC-257 melanoma) | TGI (LOX IMVI melanoma) | TGI (SK-MEL-2 melanoma) [µM] | TGI (MDA-MB-231 breast) [µM] | TGI (OVCAR-3 ovarian) [µM] | TGI (K-562 leukemia) | TGI (A549 NSCLC) | TGI (SF-539 CNS) [µM] | GI50 (RXF 393 renal) [µM] | GI50 (COLO 205 colon) [µM] | GI50 (UACC-257 melanoma) [µM] | GI50 (SK-MEL-2 melanoma) [µM] | GI50 (OVCAR-3 ovarian) [µM] | GI50 (K-562 leukemia) [µM]
CCOC(=O)c1c[nH]c(C(=O)OCC)c1-c1cccn1-c1ccccc1 | 43 µM | 38.5 | > 100 µM | 32.4 µM | 35.5 | > 100 | 37.4 | 45.4 µM | > 100 µM | – | – | – | – | – | – | –
CC(C)(C)N=CN1C=Cc2nc3ccccc3cc2C1 | > 100 µM | > 100 | > 100 µM | 73.8 µM | > 100 | – | > 100 | > 100 µM | > 100 µM | > 100 | – | – | – | – | – | –
Nc1nc(NNc2cccc(F)c2)cc(=O)[nH]1 | – | 54.3 | > 100 µM | 43.2 µM | – | > 100 | 51.5 | 74 µM | > 100 µM | > 100 | – | – | – | – | – | –
COC(=O)C(=O)C(C(=O)OC)C(=O)C(=O)Nc1c(C)cccc1C (centres undefined) | > 100 µM | > 100 | > 100 µM | > 100 µM | > 100 | – | > 100 | > 100 µM | > 100 µM | > 100 | – | – | – | – | – | –
CC(C)c1cccc(C(C)C)c1NC(=O)C(=O)Cc1nc2ccc([N+](=O)[O-])cc2[nH]c1=O | > 100 µM | > 100 | > 100 µM | > 100 µM | > 100 | – | > 100 | > 100 µM | > 100 µM | > 100 | – | – | – | – | – | –
CC(C)(C)c1cc(CCC(=O)Nc2ccc(Cl)cc2)[nH]c(=S)n1 | > 100 µM | > 100 | > 100 µM | > 100 µM | > 100 | – | > 100 | > 100 µM | > 100 µM | > 100 | – | – | – | – | – | –
Cc1ccc(C(=O)CC2(O)C(=O)Nc3c(C)cc(Cl)cc32)cc1 (centres undefined) | > 100 µM | > 100 | > 100 µM | > 100 µM | > 100 | – | > 100 | > 100 µM | > 100 µM | – | – | – | – | – | – | –
O=C(Cc1ccccc1)NN1C(=O)C(Cl)C1c1ccccc1Cl (centres undefined) | > 100 µM | > 100 | > 100 µM | > 59.5 µM | > 100 | – | > 100 | > 100 µM | > 100 µM | > 100 | – | – | – | – | – | –
CCOc1ccccc1N=Nc1ccc2oc(=O)c(C(C)=O)cc2c1 | – | > 100 | > 100 µM | > 100 µM | > 100 | – | > 100 | > 100 µM | > 100 µM | > 100 | – | – | – | – | – | –
COc1ccccc1NC(=O)C1=C(C)NC(C)=C(C(=O)Nc2ccccc2OC)C1c1ccccc1[N+](=O)[O-] | > 100 µM | 31.6 | 47.5 µM | 33.2 µM | 26 | – | 39.1 | 65 µM | > 100 µM | 37 | – | – | – | – | – | –
COC(=O)C1CC2C=CC=CC(=O)C2(C)C1 (centres undefined) | – | > 100 | > 100 µM | > 100 µM | > 100 | – | > 100 | > 100 µM | > 100 µM | > 100 | – | – | – | – | – | –
COc1ccc(N2C(=O)c3c(c4[nH]c5ccccc5c4c4ccc(C(C)(C)C)cc34)C2=O)cc1 | 98.1 µM | > 100 | > 100 µM | > 100 µM | 71.8 | – | 53.6 | > 100 µM | > 100 µM | > 100 | – | – | – | – | – | –
O=Cc1c[nH]c2c(=O)[nH]cnc12 | > 100 µM | > 100 | > 100 µM | > 100 µM | > 100 | – | > 100 | > 100 µM | > 100 µM | – | – | – | – | – | – | –
FC(F)(F)c1ccccc1C1SCC2=Nc3ccccc3CN21 (centres undefined) | 22 µM | 25 | 36.6 µM | 28.4 µM | – | > 100 | – | > 100 µM | 27.6 µM | 22.6 | – | – | – | – | – | –
Clc1ccc(Nc2nnc(CNc3ccc(-c4nnc(Nc5ccc(Cl)cc5)s4)cc3)s2)cc1 | > 100 µM | 45.3 | > 100 µM | – | 67.6 | > 100 | – | > 100 µM | > 100 µM | – | – | – | – | – | – | –
CC1=CC2C(C=C1)S(=O)(=O)N1CC21c1ccccc1 (centres undefined) | – | > 100 | > 100 µM | > 100 µM | > 100 | – | > 100 | > 100 µM | > 100 µM | > 100 | – | – | – | – | – | –
COc1cc2ccc3c4ccccc4cnc3c2cc1OC | > 100 µM | > 100 | > 100 µM | > 100 µM | > 100 | – | > 100 | > 100 µM | > 100 µM | > 100 | – | – | – | – | – | –
O=C1[C@@H]2C(c3ccc(Br)cc3)=NO[C@@H]2C(=O)N1c1ccc(Cc2ccc(N3C(=O)[C@H]4C(c5ccc(Br)cc5)=NO[C@H]4C3=O)cc2)cc1 | > 40 µM | > 40 | > 40 µM | – | > 40 | – | > 40 | > 40 µM | > 3.48 µM | > 3.48 | > 40 | > 40 | > 40 | > 40 | > 40 | > 40
N#CC(NNC(=O)Cc1ccccc1)c1cccc(O)c1 (centres undefined) | > 100 µM | > 100 | > 100 µM | > 100 µM | > 100 | – | – | > 100 µM | > 100 µM | > 100 | – | – | – | – | – | –
COc1ccc2[nH]c3c(c2c1)[C@H](c1ccccc1)C[C@@H]1C(=O)N(c2ccccc2)C(=O)[C@H]31 | 36.1 µM | > 100 | > 100 µM | > 100 µM | > 100 | – | 45.6 | > 100 µM | 35.8 µM | > 100 | – | – | – | – | – | –
CC1(C)OC(=O)C(C)(C)C(=O)O1 | – | > 100 | > 100 µM | > 100 µM | > 100 | > 100 | – | > 100 µM | > 100 µM | > 100 | – | – | – | – | – | –
Cc1ccc(S(=O)c2cccs2)cc1 (centres undefined) | > 100 µM | > 100 | > 100 µM | – | – | – | > 100 | > 100 µM | > 100 µM | > 100 | – | – | – | – | – | –
CN(C)CCN(C)P12(Oc3ccccc3O1)Oc1c(Cl)c(Cl)c(Cl)c(Cl)c1O2 | – | > 100 | 85.5 µM | > 100 µM | – | > 100 | > 100 | > 100 µM | > 100 µM | – | – | – | – | – | – | –
COc1cc2c(c(OC)c1OC)-c1ccc(SC)c(=O)cc1[C@@H](NCc1ccc(F)cc1)CC2 | 75 µM and 19.5 µM | < 0.0075 | 44.1 µM and 55.7 µM | 11.9 µM and 13.5 µM | – | – | < 0.0075 | 75 µM and > 100 µM | 75 µM and > 100 µM | – | – | – | – | – | – | –
